# Assay results from US20260185169A1, “MOLECULAR SIGNATURES TO PREDICT LONG-TERM LIVER FIBROSIS PROGRESSION” (THE BOARD OF REGENTS OF THE UNIVERSITY OF TEXAS SYSTEM, priority 2022, published 2026).
# Residues, ends and D or L forms follow the SMILES beside them. *: point of attachment. Cbz = O=C(OCc1ccccc1)*
# Key:
# [1] = test system: clinical PCLS tissues; assay: FPS/PLS response (CES, nCounter) in organotypic ex vivo culture of clinical PCLS tissues; type: cell-based, human; conditions: for FPS response rate (number of responding patients): count of patients with CES-based FPS response; for FPS response rate (number of responding patients) / FPS response rate: PCLS cultured 24 h with agent vs vehicle; for PLS response rate (number of responding patients): count of patients with PLS response; for PLS response rate (number of responding patients) / PLS response rate: ex vivo PCLS culture; for FPS response rate: percent of patients tested with CES-based FPS response; for PLS response rate: percent of patients tested with PLS response; for modulation of SLC7A1 (CAT1): drug-level FPS gene modulation in ex vivo PCLS culture
# Description: (§1) Evaluation of galunisertib, erlotinib, AM095, bortezomib, pioglitazone, metformin, epigallocatechin gallate (EGCG), I-BET 151, JQ1, captopril, nizatidine (Selleck Chemicals); MG-132 (Sigma-Aldrich); cenicriviroc (AbbVie) (Table 2) were done in organotypic ex vivo culture of precision-cut liver slice (PCLS) tissues in the FPS validation set 2 as previously described. Patient-derived liver cell spheroids were generated from a cirrhosis patient and high-risk FPS was induced by free fatty acids, and treated with EGCG, bortezomib, cenicriviroc, and/or bezafibrate for 48 h. Mycoplasma-free human hepatic myofibroblast cell lines, LX-2 and TWNT-4, were cultured with MG-132 (20 μM) or DMSO control for 12 and 24 h in triplicates.
# Total RNA was isolated from fixed tissue sections by using High Pure RNA Paraffin kit (Roche), and assessed for quality by qRT-PCR of RPL13A. Total RNA from the PCLS tissues was isolated using RNeasy kit (Qiagen). RNA samples (100-200 ng) were subjected to the PLS/FPS assay implemented in the nCounter platform (NanoString), and transcriptome profiling of the CENTAUR trial samples was performed by RNA-Seq (TrueSeq RNA Access, Illumina). Expression of BCL2, COL1A1, and ACTA2 genes was measured by qRT-PCR (Table 3). Serum protein profiling was performed by using xMAP assay (Luminex).
# Total RNA was isolated from three to five 10-μm-thick formalin-fixed paraffin-embedded (FFPE) tissue sections from the PLS/FPS derivation/validation cohorts by using High Pure RNA Paraffin kit (Roche), and lack of severe RNA fragmentation was confirmed by qRT-PCR of a housekeeping gene RPL13A as previously described.^1 From freshly harvested myofibroblast cell lines, LX-2 and TWNT-4, and clinical precision-cut-liver slice (PCLS) tissues stored in RNAlater (ThermoFisher) at −80?C, total RNA was isolated using RNeasy kit (Qiagen), and the RNA integrity number (RIN)>8 by Bioanalyzer (Agilent) was regarded as sufficient quality for expression analysis. Total RNA samples (100 to 500 ng) were subjected to the gene signature assays implemented in the digital transcript counting technology (NanoString) according to manufacturer's instruction. Poor quality profiles were detected based on maximum signal intensity from positive control probes <3,000U. Raw transcript count data were log-transformed (base 2) and scaled by geometric mean of control probe data by using NanoString normalizer module implemented in GenePattern data analysis suite (www.broadinstitute.org/genepattern). Genome-wide transcriptome profiling of the CENTAUR trial samples was performed using 100 to 200 ng total RNA by RNA-Seq using exome-enriched library preparation according to the manufacturer's protocol (TrueSeq, Illumina). Raw sequencing reads were mapped onto the reference human genome (hg19) by using the STAR aligner (ver. 2.6.1b) followed by the read counting on genes via featureCounts in the Subread package (ver. 1.6.1). The raw read counts were further normalized by using the Relative Log Expression (RLE) implemented in the DESeq2 package (ver. 1.22.2). Expression of COL1A1, and ACTA2, and BCL2 genes was measured by qRT-PCR (BioRad) using ddCt method with RPL13A as housekeeping gene, as previously described (refer Table 3 for the primer sequences). Gene expression profiles of the PLS/FPS-inducible cell culture model (cell-culture-derived PLS [cPLS] system) treated with erlotinib, pioglitazone, captopril, and resveratrol were obtained from our previous study (GSE81801).
# [2] = test system: PCLS tissue from a chronic hepatitis C patient with F2 fibrosis; assay: Validation of combination therapies by liver fibrosis gene panel in ex vivo culture of a clinical fibrotic PCLS tissue; type: cell-based, human; conditions: agent added to EGCG
# Description: as §1
# To test this idea, synergistic effect of the agents to shift the FPS from high- to low-risk pattern was computationally inferred, i.e., suppression of the high-risk genes and/or induction of the low-risk genes (see materials and methods).
# [3] = test system: biliary fibrosis induced by bile duct ligation; conditions: bile duct ligation in mice; cited from earlier work
# [4] = test system: human precision-cut liver slice (PCLS); assay: MG-132 effect on COL1A1, ACTA2 and BCL2 expression (qRT-PCR) in ex vivo PCLS culture; type: cell-based; conditions: PCLS from two patients, HCV (F1) and NAFLD (F2); vs DMSO
# Description: as §1
# (§2) Total RNA was isolated from fixed tissue sections by using High Pure RNA Paraffin kit (Roche), and assessed for quality by qRT-PCR of RPL13A. Total RNA from the PCLS tissues was isolated using RNeasy kit (Qiagen). RNA samples (100-200 ng) were subjected to the PLS/FPS assay implemented in the nCounter platform (NanoString), and transcriptome profiling of the CENTAUR trial samples was performed by RNA-Seq (TrueSeq RNA Access, Illumina). Expression of BCL2, COL1A1, and ACTA2 genes was measured by qRT-PCR (Table 3). Serum protein profiling was performed by using xMAP assay (Luminex). […]
# [5] = test system: LX-2; assay: MG-132 effect on COL1A1, ACTA2 and BCL2 expression (qRT-PCR) in LX-2; type: cell-based, human; conditions: MG-132 20 μM vs DMSO, 12 and 24 h
# Description: as §1, §2
# [6] = test system: clinical PCLS tissue; assay: Immunostaining of cleaved caspase-3, alpha-SMA and GFAP in PCLS tissues cultured with MG-132 or DMSO; type: cell-based, human; conditions: PCLS tissues cultured with MG-132 vs DMSO, five patients
# Experimental: FIG. 4A depicts a co-expression gene network defined in the FPS derivation set 1 to 4. Hub genes are indicated with larger nodes. Synthesized association with time to fibrosis progression (Fisher's inverse chi-square statistic) in the FPS derivation set 1 and 2 is shown by red (poor outcome) to blue (good outcome) color scale. […] All assays were performed in triplicates. Green dotted line indicates expression level of the DMSO-treated control. […] Paired tissues from the same patient are connected with a line. Wilcoxon signed-rank test p-value is shown. […] Scale bars indicate 50 μm and 25 μm for upper and lower panels, respectively. […] Scale bars indicate 100 μm. […] NES: normalized enrichment score. FDR: false discovery rate.
# Immunostaining was performed for caspase-3 (Asp175) (5A1E, Cell Signaling), alpha-SMA (Abcam), Desmin (DAKO), GFAP (abcam), and Ki-67 (Abcam). TUNEL staining was performed using ApopTag Peroxidase In Situ Apoptosis Detection Kit (EMD Millipore).
# [7] = test system: TWNT-4; assay: MG-132 effect on COL1A1, ACTA2 and BCL2 expression (qRT-PCR) in TWNT-4; type: cell-based, human; conditions: MG-132 20 μM vs DMSO, 12 and 24 h
# Description: as §1, §2
Compound,FPS response rate (number of responding patients) [1],PLS response rate (number of responding patients) [1],modulation of SLC7A1 (CAT1) [1],other results
CC(C)C[C@H](NC(=O)[C@H](Cc1ccccc1)NC(=O)c1cnccn1)B(O)O [Bortezomib],4,5,,"expression of genes encoding extracellular matrix proteins (COL1A1, HAS2) and fibrogenic drivers (PDGFRB, TGFB1, NOTCH1, LPAR1) [2]: substantially reduced expression; myofibroblast activation and biliary fibrosis [3]: reduced myofibroblast activation and inhibit biliary fibrosis"
CCc1ccc(CCOc2ccc(CC3SC(=O)NC3=O)cc2)nc1 (stereo not shown) [Pioglitazone],6,7,,
O=C(O[C@@H]1Cc2c(O)cc(O)cc2O[C@@H]1c1cc(O)c(O)c(O)c1)c1cc(O)c(O)c(O)c1 [Epigallocatechin gallate],7,9,,FPS response rate [1]: 64%; PLS response rate [1]: 81.82%
CN(C)C(=N)N=C(N)N [Metformin],7,6,similarly striking suppression,
Cc1cccc(-c2nn3c(c2-c2ccnc4ccc(C(N)=O)cc24)CCC3)n1 [Galunisertib],6,7,similarly striking suppression,
Cc1noc(-c2ccc(-c3ccc(CC(=O)O)cc3)cc2)c1NC(=O)O[C@H](C)c1ccccc1 [AM095],11,8,similarly striking suppression,FPS response rate [1]: 38%; PLS response rate [1]: 27.59%
CC(C)C[C@@H](C=O)NC(=O)[C@H](CC(C)C)NC(=O)[C@H](CC(C)C)NC(=O)OCc1ccccc1 [MG132] (Cbz-Leu-Leu-Leu-aldehyde),6,3,,"modulation of high-risk FPS genes (gene set enrichment analysis) ([1]; clinical fibrotic PCLS tissues, ex vivo MG-132, FDR≤0.008): significantly suppressed; expression of genes encoding extracellular matrix proteins (COL1A1, HAS2) and fibrogenic drivers (PDGFRB, TGFB1, NOTCH1, LPAR1) [2]: substantially reduced expression; myofibroblast activation and biliary fibrosis [3]: reduced myofibroblast activation and inhibit biliary fibrosis; expression of COL1A1, ACTA2 and BCL2 [4]: reduced expression; expression of COL1A1, ACTA2 and BCL2 [5]: suppression; cleaved-caspase-3-positive cells (apoptosis induction) [6]: increased; expression of COL1A1, ACTA2 and BCL2 [7]: suppression"
CNC(=C[N+](=O)[O-])NCCSCc1csc(CN(C)C)n1 [Nizatidine],3,3,,
C#Cc1cccc(Nc2ncnc3cc(OCCOC)c(OCCOC)cc23)c1 [Erlotinib],11,13,,
